Source: patent publication US9555038B2, “Heterocycle-substituted tetracyclic compounds and methods of use thereof for the treatment of viral diseases” (Merck Sharp & Dohme Corp., priority 2013, dated 2017)
Read-outs that look alike come from different tables or passages of the source.

How the values were obtained:
HCV replicon 1A = assay: Cell-based HCV Replicon Assay A, replicon 1A
Description: (§1) To measure cell-based anti-HCV activity of compounds of the present invention, two complimentary assays were employed using various replicons. In the first assay (“Replicon Assay A”), replicon cells were seeded at 2000 cells/well in 384-well 384-well flat bottom tissue culture treated clear bottom plate (Corning 3707) in the presence of the test compound. Various concentrations of test compound, typically in 10 serial dilutions, were added to the assay mixture, with the starting concentration ranging from 333.3 nM to […]. The final concentration of DMSO was 0.5%. Fetal bovine serum was 5%, in the assay media. Cells were harvested on day 3 by removing media and washing the cells with a suitable wash buffer. The cells are lysed with the addition of 1× Qiagen lysis buffer (Cat #1062731). The replicon RNA level was measured using real time PCR (TaqMan® EZ RT-PCR, Applied Biosystems 403028) with the following primers and probes: […]
(§2) Cyclophilin RNA was used as endogenous control and was amplified in the same reaction as NS5B (multiplex PCR). The real-time RT-PCR reactions were run on ABI PRISM 7900HT Sequence Detection System using the following program: 50° C. for 2 minutes, 60° C. for 30 minutes, 95° C. for 5 minutes, 40 cycles of 94° C. for 20 sec, 55° C. for 1 minutes.
(§3) The amount of HCV replicon RNA per cell is quantified using a linear regression curve for a known nanogram (ng) amount of HCV replicon total RNA. This is established by plotting the Cycle Threshold values (Ct) from the Neo probe and primer set versus the log (ng) for each HCV replicon total RNA standard. The amount of HCV RNA for each replicon sample is calculated by taking the sample's Ct value, minus the line intercept, divided by the slope of the line. Similarly, the amount of Cyclophilin mRNA per cell is also quantified using a linear regression curve for a known nanogram (ng) amount of HCV replicon total RNA. Again, this is established by plotting the Cycle Threshold values (Ct) from the Cyclophilin probe and primer set versus the log (ng) for each HCV replicon total RNA standard.
(§4) Data was obtained for various compounds of the present invention using the methods described in the Example above, and is presented in the table immediately below. Data for replicons 1A, 1AY93H and 2B were obtained using Replicon Assay A and data for replicons 1AQ30D and 1B were obtained using Replicon Assay B.

HCV replicon 2B = assay: Cell-based HCV Replicon Assay A, replicon 2B
Description: as §1, §2, §3, §4

HCV replicon 1AY93H = assay: Cell-based HCV Replicon Assay A, replicon 1AY93H
Description: as §1, §2, §3, §4

[1] = Hepatitis C virus, read-out: 2B IC50 (nM), replicon 2B
[2] = read-out: 1A Y93H IC50, replicon 1AY93H

## COC(=O)N[C@H](C(=O)N1CCC[C@H]1c1ncc(-c2cc(F)c3c(c2)OC(c2cnc(-c4ncccn4)s2)n2c-3cc3cc(-c4cnc([C@@H]5CCCN5C(=O)[C@@H](NC(=O)OC)C(C)C)[nH]4)ccc32)[nH]1)C(C)C (mixture of isomers) [Compound 411]
HCV replicon 1A; Hepatitis C virus
  IC50: 51.2 pM

## COC(=O)N[C@H](C(=O)N1CCC[C@H]1c1ncc(-c2cc(F)c3c(c2)OC(c2cnc(-c4ccc(C)o4)s2)n2c-3cc3cc(-c4cnc([C@@H]5CCCN5C(=O)[C@@H](NC(=O)OC)C(C)C)[nH]4)ccc32)[nH]1)C(C)C (single isomer, unassigned) [Compound 412]
HCV replicon 2B; [1]
  IC50: 0.12 nM

## COC(=O)N[C@H](C(=O)N1CCC[C@H]1c1ncc(-c2cc(F)c3c(c2)OC(c2nc(C4CC4)cs2)n2c-3cc3cc(-c4cnc([C@@H]5CCCN5C(=O)[C@@H](NC(=O)OC)C(C)C)[nH]4)ccc32)[nH]1)C(C)C (single isomer, unassigned) [Compound 11]
HCV replicon 2B; read-out: 2B IC50, replicon 2B
  IC50: 6.06 nM
HCV replicon 1AY93H; [2]
  IC50: 14.4 nM

## COC(=O)N[C@H](C(=O)N1CCC[C@H]1c1ncc(-c2cc(F)c3c(c2)OC(c2sc(C)nc2C(F)(F)F)n2c-3cc3cc(-c4cnc([C@@H]5CCCN5C(=O)[C@@H](NC(=O)OC)C(C)C)[nH]4)ccc32)[nH]1)C(C)C (mixture of isomers) [Compound 426]
HCV replicon 1A; Hepatitis C virus
  IC50: 2.2 pM

## COC(=O)NC(C(=O)N1CCC[C@H]1c1ncc(-c2ccc3c(c2)cc2n3C(c3cnc(-c4ccc(F)cc4)s3)Oc3cc(-c4cnc([C@@H]5CCCN5C(=O)[C@@H](NC(=O)OC)C(C)C)[nH]4)cc(F)c3-2)[nH]1)C1C[C@@H](C)O[C@@H](C)C1 (single isomer, unassigned) [Compound 79]
HCV replicon 2B; read-out: 2B IC50, replicon 2B
  IC50: 0.002 nM
HCV replicon 1AY93H; [2]
  IC50: 0.0041 nM

## COC(=O)N[C@H](C(=O)N1CCC[C@H]1c1ncc(-c2cc(F)c3c(c2)OC(c2cnns2)n2c-3cc3cc(-c4cnc([C@@H]5CCCN5C(=O)[C@@H](NC(=O)OC)C(C)C)[nH]4)ccc32)[nH]1)C(C)C (single isomer, unassigned) [Compound 4]
HCV replicon 2B; read-out: 2B IC50, replicon 2B
  IC50: 0.98 nM
HCV replicon 1AY93H; [2]
  IC50: 1.39 nM

## COC(=O)N[C@H](C(=O)N1CCC[C@H]1c1ncc(-c2cc(F)c3c(c2)OC(c2cncs2)n2c-3cc3cc(-c4cnc([C@@H]5CCCN5C(=O)[C@@H](NC(=O)OC)C(C)C)[nH]4)ccc32)[nH]1)C(C)C (single isomer, unassigned) [Compound 1]
HCV replicon 2B; read-out: 2B IC50, replicon 2B
  IC50: 0.88 nM

## CCC(CC)c1ncc(C2Oc3cc(-c4cnc([C@@H]5CCCN5C(=O)[C@@H](NC(=O)OC)C(C)C)[nH]4)cc(F)c3-c3cc4cc(-c5cnc([C@@H]6CCCN6C(=O)[C@@H](NC(=O)OC)C(C)C)[nH]5)ccc4n32)s1 (single isomer, unassigned) [Compound 429]
HCV replicon 1A
  IC50: 1.2 pM

## COC(=O)N[C@H](C(=O)N1CCC[C@H]1c1ncc(-c2cc(F)c3c(c2)OC(c2cnc(C(C)C)s2)n2c-3cc3cc(-c4cnc([C@@H]5CCCN5C(=O)[C@@H](NC(=O)OC)C(C)C)[nH]4)ccc32)[nH]1)C(C)C (single isomer, unassigned) [Compound 85]
HCV replicon 2B; read-out: 2B IC50, replicon 2B
  IC50: 1.08 nM
HCV replicon 1A; Hepatitis C virus
  IC50: 1.4 pM

## COC(=O)N[C@H](C(=O)N1CCC[C@H]1c1ncc(-c2cc(F)c3c(c2)OC(c2cnc(C4CC4)s2)n2c-3c(F)c3cc(-c4cnc([C@@H]5CCCN5C(=O)[C@@H](NC(=O)OC)C(C)C)[nH]4)ccc32)[nH]1)C(C)C (single isomer, unassigned) [Compound 22]
HCV replicon 2B; read-out: 2B IC50, replicon 2B
  IC50: 0.44 nM
HCV replicon 1AY93H; [2]
  IC50: 0.86 nM

## COC(=O)N[C@H](C(=O)N1CCC[C@H]1c1ncc(-c2cc(F)c3c(c2)OC(c2cnc(-c4ccncc4)s2)n2c-3cc3cc(-c4cnc([C@@H]5CCCN5C(=O)[C@@H](NC(=O)OC)C(C)C)[nH]4)ccc32)[nH]1)C(C)C (single isomer, unassigned) [Compound 410]
HCV replicon 2B; read-out: 2B IC50, replicon 2B
  IC50: 1.5 nM

## COC(=O)N[C@H](C(=O)N1CCC[C@H]1c1ncc(-c2cc(F)c3c(c2)OC(c2cnc(CC(C)(C)C)s2)n2c-3cc3cc(-c4cnc([C@@H]5CCCN5C(=O)[C@@H](NC(=O)OC)C(C)C)[nH]4)ccc32)[nH]1)C(C)C (single isomer, unassigned) [Compound 523]
HCV replicon 1AY93H; replicon 1AY93H, read-out: 1A Y93H IC50
  IC50: 0.13 nM
HCV replicon 1A
  IC50: 1.2 pM

## COC(=O)N[C@H](C(=O)N1CCC[C@H]1c1ncc(-c2cc(F)c3c(c2)OC(c2cnc(C(F)F)s2)n2c-3cc3cc(-c4cnc([C@@H]5CCCN5C(=O)[C@@H](NC(=O)OC)C(C)C)[nH]4)ccc32)[nH]1)C(C)C (single isomer, unassigned) [Compound 19]
HCV replicon 2B; read-out: 2B IC50, replicon 2B
  IC50: 0.933 nM
HCV replicon 1AY93H; [2]
  IC50: 1.24 nM

## COC(=O)N[C@H](C(=O)N1CCC[C@H]1c1ncc(-c2cc(F)c3c(c2)OC(c2nnc(C)s2)n2c-3cc3cc(-c4cnc([C@@H]5CCCN5C(=O)[C@@H](NC(=O)OC)C(C)C)[nH]4)ccc32)[nH]1)C(C)C (single isomer, unassigned) [Compound 6]
HCV replicon 2B; [1]
  IC50: 1.75 nM

## CCCc1ncc(C2Oc3cc(-c4cnc([C@@H]5CCCN5C(=O)[C@@H](NC(=O)OC)C(C)C)[nH]4)cc(C)c3-c3cc4cc(-c5cnc([C@@H]6CCCN6C(=O)C(NC(=O)OC)C6CCOC(C)(C)C6)[nH]5)ccc4n32)s1 (single isomer, unassigned) [Compound 226]
HCV replicon 2B; [1]
  IC50: 0.005 nM

## COC(=O)N[C@H](C(=O)N1CCC[C@H]1c1ncc(-c2cc(F)c3c(c2)OC(c2nc(C4CC4)cs2)n2c-3cc3cc(-c4cnc([C@@H]5CCCN5C(=O)[C@@H](NC(=O)OC)C(C)C)[nH]4)ccc32)[nH]1)C(C)C (single isomer, unassigned) [Compound 12]
HCV replicon 2B; read-out: 2B IC50, replicon 2B
  IC50: 2.21 nM
HCV replicon 1AY93H; [2]
  IC50: 0.18 nM

## COC(=O)N[C@H](C(=O)N1CCC[C@H]1c1ncc(-c2cc(F)c3c(c2)OC(c2nnc(C)s2)n2c-3cc3cc(-c4cnc([C@@H]5CCCN5C(=O)[C@@H](NC(=O)OC)C(C)C)[nH]4)ccc32)[nH]1)C(C)C (single isomer, unassigned) [Compound 5]
HCV replicon 2B; read-out: 2B IC50, replicon 2B
  IC50: 3.06 nM

## COC(=O)NC(C(=O)N1[C@@H]2C[C@@H]2C[C@H]1c1ncc(-c2ccc3c(c2)cc2n3C(c3cnc(C(C)(C)C)s3)Oc3cc(-c4cnc([C@@H]5CCCN5C(=O)[C@@H](NC(=O)OC)C(C)C)[nH]4)cc(F)c3-2)[nH]1)C1CCOC(C)(C)C1 (single isomer, unassigned) [Compound 330]
HCV replicon 2B; read-out: 2B IC50, replicon 2B
  IC50: 0.016 nM

## COC(=O)NC(C(=O)N1[C@@H]2C[C@@H]2C[C@H]1c1ncc(-c2ccc3c(c2)cc2n3C(c3cnc(C(C)(C)C)s3)Oc3cc(-c4cnc([C@@H]5CCCN5C(=O)[C@@H](NC(=O)OC)C(C)C)[nH]4)cc(F)c3-2)[nH]1)C1CCOC(C)(C)C1 (single isomer, unassigned) [Compound 329]
HCV replicon 2B; read-out: 2B IC50, replicon 2B
  IC50: 0.16 nM

## COC(=O)N[C@H](C(=O)N1CCC[C@H]1c1ncc(-c2cc(F)c3c(c2)OC(c2sc(C)nc2C(F)(F)F)n2c-3cc3cc(-c4cnc([C@@H]5CCCN5C(=O)[C@@H](NC(=O)OC)C(C)C)[nH]4)ccc32)[nH]1)C(C)C (single isomer, unassigned) [Compound 427]
HCV replicon 1A; Hepatitis C virus
  IC50: 2.4 pM

## COC(=O)N[C@H](C(=O)N1CCC[C@H]1c1ncc(-c2cc(F)c3c(c2)OC(c2nc4ccccc4s2)n2c-3cc3cc(-c4cnc([C@@H]5CCCN5C(=O)[C@@H](NC(=O)OC)C(C)C)[nH]4)ccc32)[nH]1)C(C)C (single isomer, unassigned) [Compound 400]
HCV replicon 2B; read-out: 2B IC50, replicon 2B
  IC50: > 1.67 nM

## COC(=O)NC(C(=O)N1[C@@H]2C[C@@H]2C[C@H]1c1ncc(-c2ccc3c(c2)cc2n3C(c3cnc(C4CC4)s3)Oc3cc(-c4cnc([C@@H]5CCCN5C(=O)[C@@H](NC(=O)OC)C(C)C)[nH]4)cc(F)c3-2)[nH]1)C1CCOC(C)(C)C1 (single isomer, unassigned) [Compound 314]
HCV replicon 2B; read-out: 2B IC50, replicon 2B
  IC50: 0.002 nM
HCV replicon 1A
  IC50: 2.6 pM

## COC(=O)NC(C(=O)N1[C@@H]2C[C@@H]2C[C@H]1c1ncc(-c2ccc3c(c2)cc2n3C(c3cnc(C4CC4)s3)Oc3cc(-c4cnc([C@@H]5CCCN5C(=O)[C@@H](NC(=O)OC)C(C)C)[nH]4)cc(C)c3-2)[nH]1)C1CCOC(C)(C)C1 (single isomer, unassigned) [Compound 227]
HCV replicon 2B; [1]
  IC50: 0.016 nM

## COC(=O)N[C@H](C(=O)N1CCC[C@H]1c1ncc(-c2cc(F)c3c(c2)OC(c2cnc(CC(C)C)s2)n2c-3cc3cc(-c4cnc([C@@H]5CCCN5C(=O)[C@@H](NC(=O)OC)C(C)C)[nH]4)ccc32)[nH]1)C(C)C (single isomer, unassigned) [Compound 513]
HCV replicon 2B; replicon 2B, read-out: 2B IC50
  IC50: 1.21 nM

## COC(=O)N[C@H](C(=O)N1CCC[C@H]1c1ncc(-c2cc(F)c3c(c2)OC(c2cnc(C4CCCC4)s2)n2c-3cc3cc(-c4cnc([C@@H]5CCCN5C(=O)[C@@H](NC(=O)OC)C(C)C)[nH]4)ccc32)[nH]1)C(C)C (single isomer, unassigned) [Compound 26]
HCV replicon 2B; read-out: 2B IC50, replicon 2B
  IC50: 0.449 nM
HCV replicon 1AY93H; [2]
  IC50: 0.126 nM
